Measurements from ChEMBL document CHEMBL1159192, “PD 165929 the first high affinity non-peptide neuromedin-B (NMB) receptor selective antagonist” (Bioorg Med Chem Lett, 1996).

Experiments:
[1] = target: Gastrin-releasing peptide receptor (Homo sapiens, UniProt P30550); assay: Binding affinity against [125 I][4Tyr]-bombesin labeled cloned human GRP(gastrin releasing peptide) receptors stably expressed in CHO cells; assay type: cell-based
Neuromedin-B receptor [2] = target: T1, Neuromedin-B receptor (Homo sapiens, UniProt P28336); assay: Binding affinity against [125 I][4Tyr]-bombesin labeled cloned human NMB receptor stably expressed in CHO cells; assay type: cell-based
Target sequence in this assay (P28336 whole entry): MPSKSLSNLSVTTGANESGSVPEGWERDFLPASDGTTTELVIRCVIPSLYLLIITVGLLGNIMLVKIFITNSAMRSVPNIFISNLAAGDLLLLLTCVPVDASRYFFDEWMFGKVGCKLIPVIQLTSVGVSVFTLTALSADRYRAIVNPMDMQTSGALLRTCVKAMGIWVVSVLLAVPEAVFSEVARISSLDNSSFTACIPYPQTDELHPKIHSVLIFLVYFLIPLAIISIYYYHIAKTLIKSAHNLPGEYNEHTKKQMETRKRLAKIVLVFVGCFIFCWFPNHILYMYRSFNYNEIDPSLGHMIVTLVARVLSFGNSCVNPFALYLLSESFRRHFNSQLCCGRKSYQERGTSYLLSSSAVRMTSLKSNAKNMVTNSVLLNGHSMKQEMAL

Neuromedin-B receptor [3] = target: T1, Neuromedin-B receptor; assay: Binding affinity against human NMB receptor was determined
Target sequence in this assay (P28336 whole entry): as above

Neuromedin-B receptor [4] = target: T1, Neuromedin-B receptor; assay: Inhibition of the NMB induced acidification response at human NMB receptor expressed in CHO cell; assay type: functional, cell-based
Target sequence in this assay (P28336 whole entry, looked up): as the sequence (P28336 whole entry) above

Neuromedin-B receptor [5] = target: T2, Neuromedin-B receptor (Rattus norvegicus, UniProt P24053); assay: Binding affinity against NMB receptor in rat olfactory bulb was determined using [125I]-[Tyr4] bombesin.
T2 sequence (P24053 whole entry): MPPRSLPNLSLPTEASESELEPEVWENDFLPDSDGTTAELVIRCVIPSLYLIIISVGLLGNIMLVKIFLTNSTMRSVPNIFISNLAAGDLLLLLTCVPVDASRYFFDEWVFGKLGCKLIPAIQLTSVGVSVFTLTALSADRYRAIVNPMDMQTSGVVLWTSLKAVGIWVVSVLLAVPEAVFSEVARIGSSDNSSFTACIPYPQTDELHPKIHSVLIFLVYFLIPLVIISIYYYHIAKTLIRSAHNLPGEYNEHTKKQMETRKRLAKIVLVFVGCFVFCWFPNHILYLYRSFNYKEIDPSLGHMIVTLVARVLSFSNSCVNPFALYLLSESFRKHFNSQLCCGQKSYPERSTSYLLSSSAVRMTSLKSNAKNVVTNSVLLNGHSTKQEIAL

Neuromedin-B receptor [6] = target: T1, Neuromedin-B receptor; assay: Inhibition of the NMB evoked increases in chloride currents in xenopus oocytes expressing human NMB receptor; assay type: functional, cell-based; conditions: Oocyte
Target sequence in this assay (P28336 whole entry, looked up): as the sequence (P28336 whole entry) above

Gastrin-releasing peptide receptor, sequence (P30550 whole entry): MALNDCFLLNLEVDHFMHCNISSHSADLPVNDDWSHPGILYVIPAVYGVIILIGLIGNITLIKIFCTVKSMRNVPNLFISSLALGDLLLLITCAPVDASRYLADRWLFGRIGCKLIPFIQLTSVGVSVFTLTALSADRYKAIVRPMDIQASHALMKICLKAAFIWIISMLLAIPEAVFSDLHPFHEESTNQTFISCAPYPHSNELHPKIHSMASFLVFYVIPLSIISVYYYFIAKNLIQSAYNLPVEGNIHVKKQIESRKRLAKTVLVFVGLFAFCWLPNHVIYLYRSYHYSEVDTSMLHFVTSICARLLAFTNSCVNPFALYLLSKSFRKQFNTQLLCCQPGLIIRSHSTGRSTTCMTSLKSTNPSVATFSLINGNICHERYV

| SMILES | Ki [1] | Ki (Neuromedin-B receptor [2]) | Ki (Neuromedin-B receptor [3]) | Kb (Neuromedin-B receptor [4]) | IC50 (Neuromedin-B receptor [5]) | Kb (Neuromedin-B receptor [6]) |
| --- | --- | --- | --- | --- | --- | --- |
| CC(C)c1cccc(C(C)C)c1NC(=O)NC(C)(Cc1c[nH]c2ccccc12)C(=O)N[C@H]1COC(C)(C)OC1c1ccccc1 (stereo partly drawn) | > 10 µM | 0.095 µM |  |  |  |  |
| CC(C)c1cccc(C(C)C)c1NC(=O)NC(C)(Cc1c[nH]c2ccccc12)C(=O)NC1CCCc2ccccc21 (stereo not drawn) | > 10 µM | 0.072 µM |  |  |  |  |
| CC(C)c1cccc(C(C)C)c1NC(=O)NC(C)(Cc1c[nH]c2ccccc12)C(=O)NC1COC(C)(C)OC1 (stereo not drawn) | > 10 µM | 0.63 µM |  |  |  |  |
| CC(C)c1cccc(C(C)C)c1NC(=O)NC(Cc1c[nH]c2ccccc12)C(=O)N(C)CC1CCCCC1 (stereo not drawn) | > 10 µM |  |  |  |  |  |
| CC(C)c1cccc(C(C)C)c1NC(=O)N[C@@](C)(Cc1c[nH]c2ccccc12)C(=O)NCC1(c2ccccn2)CCCCC1 | > 10 µM | 0.0063 µM | 0.0063 µM | 0.0076 µM | 0.15 µM | 0.0075 µM |
| CC(C)c1cccc(C(C)C)c1NC(=O)NC(C)(Cc1c[nH]c2ccccc12)C(=O)NC1CCc2ccccc2C1 (stereo not drawn) | > 10 µM | 0.31 µM |  |  |  |  |
| CC(C)c1cccc(C(C)C)c1NC(=O)NC(Cc1c[nH]c2ccccc12)C(=O)NC(C)C1CCCCC1 (stereo not drawn) | > 10 µM | 0.44 µM |  |  |  |  |
| CC(C)c1cccc(C(C)C)c1NC(=O)N[C@@](C)(Cc1c[nH]c2ccccc12)C(=O)NC1CCCCC1c1ccccc1 (stereo partly drawn) | > 10 µM | 0.076 µM |  |  |  |  |
| CC(C)c1cccc(C(C)C)c1NC(=O)NC(C)(Cc1c[nH]c2ccccc12)C(=O)NCC1CCCCC1 (stereo not drawn) | > 10 µM | 0.125 µM |  |  |  |  |

More lines, now with the values ahead:

| Ki [1] | Ki (Neuromedin-B receptor [2]) | Ki (Neuromedin-B receptor [3]) | Kb (Neuromedin-B receptor [4]) | IC50 (Neuromedin-B receptor [5]) | Kb (Neuromedin-B receptor [6]) | SMILES |
| --- | --- | --- | --- | --- | --- | --- |
| > 10 µM | 0.31 µM |  |  |  |  | CC(C)c1cccc(C(C)C)c1NC(=O)NC(C)(Cc1c[nH]c2ccccc12)C(=O)NC1CCCCC1 (stereo not drawn) |
| > 10 µM | 0.12 µM |  |  |  |  | CC(C)c1cccc(C(C)C)c1NC(=O)NC(Cc1c[nH]c2ccccc12)C(=O)NCC1CCCCC1 (stereo not drawn) |
| > 10 µM | 0.45 µM |  |  |  |  | CC(C)c1cccc(C(C)C)c1NC(=O)NC(C)(Cc1c[nH]c2ccccc12)C(=O)NCCc1ccccc1 (stereo not drawn) |
| > 10 µM | 0.0078 µM |  |  |  |  | CC(C)c1cccc(C(C)C)c1NC(=O)NC(C)(Cc1c[nH]c2ccccc12)C(=O)NCC1(c2ccccc2)CCCCC1 (stereo not drawn) |
| > 10 µM | 0.014 µM |  |  |  |  | CC(C)c1cccc(C(C)C)c1NC(=O)N[C@](C)(Cc1c[nH]c2ccccc12)C(=O)NC1CCCc2ccccc21 (stereo partly drawn) |
| > 10 µM | 3.7 µM |  |  |  |  | CNC(=O)C(C)(Cc1c[nH]c2ccccc12)NC(=O)Nc1c(C(C)C)cccc1C(C)C (stereo not drawn) |
| > 10 µM | 0.42 µM |  |  |  |  | CC(C)c1cccc(C(C)C)c1NC(=O)NC(C)(Cc1c[nH]c2ccccc12)C(=O)N[C@@H]1COC(C)(C)OC1c1ccccc1 (stereo partly drawn) |
| > 10 µM | 0.26 µM |  |  |  |  | CC(C)c1cccc(C(C)C)c1N(C)C(=O)NC(Cc1c[nH]c2ccccc12)C(=O)NCC1CCCCC1 (stereo not drawn) |
| 1.5 µM |  |  |  |  |  | CC(C)c1cccc(C(C)C)c1NC(=O)N(C)C(Cc1c[nH]c2ccccc12)C(=O)NCC1CCCCC1 (stereo not drawn) |
